What all share (format): cell-based
Series [1] deals with HIV-1 LTR^ΔNFκB/ΔTAR. Description: HIV-1 LTR^ΔNFκB/ΔTAR-luciferase double-mutant reporter assay in HeLa cells. An excerpt:
HeLa cells were co-transfected as in A with a double-mutant, HIV-1 LTR^ΔNFκB/ΔTAR-luciferase reporter plasmid, deleted for κB-responsive elements and TAR-RNA sequences, RSV-HIV-1 Tat, CMV-WRN, or CMV-BLM.

The test system of series [2] is HIV-1 LTR. Description: HIV-1 LTR-luciferase / tk-renilla normalized reporter assay in HeLa cells. The conditions noted are these: for Tat-activated HIV-1 LTR luciferase activity with or without WRNK577M: highest concentration of WRNK577M versus Tat alone. How it is done: (§1) Therefore, we co-transfected immortalized WRN^-I- fibroblasts with a tk-renilla luciferase reporter plasmid (which produces red luminescence as a result of renilla luciferase expression driven by the Herpes Simplex Virus thymidine kinase (tk) minimal gene promoter)(0.5 μg) and an HIV-1 LTR-luciferase reporter construct (which produces green luminescence as a result of firefly luciferase expression driven by the HIV-1 LTR) (0.5 μg), and increasing amounts of RSV-HIV-1 Tat or RSV-HIV-1 TatK28A/K50A (0.15, 0.25, 0.5 μg) in the absence or presence of the trans-dominant negative CMV-WRNK577M mutant (0.5, 1.0 μg). The CMV-WRNK577M trans-dominant-negative helicase-defective mutant was co-expressed in certain experiments to inhibit Tat-activated HIV-1 LTR transcription and endogenous WRN functions in HeLa cells (Bai Y et al., Hum. Genet. 113:337-347). Samples were normalized to yield approximately equivalent renilla-luciferase expression to control for transfection efficiencies and any differences in overall transcription levels between WRN^-I- fibroblasts and HeLa cells. Normalized extracts were then compared to determine basal-level and Tat-activated HIV-1 LTR-luciferase transcription.
For orientation: In a reporter assay the amount or activity of a reporter protein is the signal.

The test system of series [3] is HIV-1 LTR. Description: HIV-1 LTR-luciferase / tk-renilla normalized reporter assay in immortalized WRN^-I- fibroblasts. The conditions noted are these: highest concentration of RSV-HIV-1 Tat. As to the method:
In order to determine whether the WRN helicase is an essential cofactor for HIV-1 transcription and virus replication, basal and Tat-activated LTR-driven transcription were measured in WRN^-I-fibroblasts. These fibroblasts were obtained from Werner's syndrome patients and lack a functional WRN helicase protein (Moser M J et al., Nucleic Acids Res. 28:648-654).
as §1, with “Samples were normalized to yield approximately equivalent renilla-luciferase expression to control for transfection efficiencies and any differences in overall transcription levels between WRN^-I- fibroblasts and HeLa cells. Normalized extracts were then compared to determine basal-level and Tat-activated HIV-1 LTR-luciferase transcription.” left out

Series [4] concerns HIV-1 LTR. Description: HIV-1 LTR-luciferase reporter assay in Jurkat E6.1 T-cells. The conditions noted are these: Jurkat E6.1 lymphocytes. As to the method: To determine the influence of the WRN helicase upon HIV-1 LTR transcriptional activation in CD4^+ lymphocytes, Jurkat E6.1 T-cells were co-transfected with HIV-1 LTR-luciferase (0.5 μg), RSV-HIV-1 Tat (0.5 μg), and increasing amounts of CMV-WRN or CMV-WRNK577M, which expresses a trans-dominant negative helicase-defective mutant (0.25, 0.5, 1.0 μg). Following transfection, the cells were lysed by repeated freeze-thawing and luciferase assays were performed, in duplicate, using equivalent amounts of total cellular proteins.

Series [5] concerns HIV-1 LTR^ΔκB. Description: HIV-1 LTR^ΔκB-luciferase mutant reporter assay in co-transfected HeLa cells. The settings on record: for transcription from the HIV-1 LTR^ΔκB-luciferase construct (in words): absence of Tat. As to the method:
To determine whether the TAR-RNA stem-loop secondary structure is sufficient to support WRN-mediated LTR trans-activation, HeLa cells were co-transfected with an HIV-1 LTR^ΔκB luciferase mutant reporter construct, lacking upstream NF-κB-responsive enhancer sequences (transcription from this construct is principally regulated at the level of elongation by TAR-RNA), RSV-HIV-1 Tat, or increasing amounts of CMV-WRN or CMV-WRNK577M (0.25, 0.5, 1.0 μg). Luciferase assays were performed as described using equivalent amounts of total cellular proteins.
The next experiment was undertaken to determine whether interactions with the Tat protein influence WRN's ability to trans-activate the HIV-1 LTR. […] All experiments were performed in duplicate or triplicate and error bars representative of standard deviations are shown in FIG. 4C.

Series [6] relates to HIV-1 LTR. Description: HIV-1 LTR-luciferase reporter assay in co-transfected HeLa cells. The settings on record: for effect on basal HIV-1 LTR transcriptional activity (in words): absence of Tat. As to the method: To determine whether the WRN or BLM helicases influence HIV-1 transcriptional activity and viral replication, HeLa cells were co-transfected with an HIV-1 LTR-luciferase reporter plasmid (0.5 μg), RSV-HIV-1 Tat (0.5 μg), and increasing amounts of CMV-WRN or CMV-BLM expression constructs (0.25, 0.5, 1.0 μg). Following transfection, the cells were lysed by repeated freeze-thawing and luciferase assays were performed using equivalent amounts of total cellular proteins.
Next, an assay was performed to determine whether WRN-associated helicase activity is required for WRN-mediated trans-activation from the HIV-1 LTR. HeLa cells were co-transfected as in A with the HIV-1 LTR-luciferase reporter plasmid (0.5 μg), RSV-HIV-1 Tat (0.5 μg), or increasing amounts of CMV-WRN and CMV-WRNK577M (a trans-dominant negative helicase-defective mutant) (0.25, 0.5, 1.0 μg) in the absence of HIV-1 Tat expression. Results shown in FIG. 3B are averages from duplicate assays and error bars representing standard deviations between samples are provided.

Series [7] concerns HIV-1IIIB-infected H9 lymphocytes. Description: Intracellular p24^Gag immunoblotting in transfected HIV-1IIIB-infected H9 lymphocytes. The conditions noted are these: PHA (10 ng/ml) and hIL-2 (50 U/ml) stimulated, over-expression. As to the method:
The influence of over-expressing wild-type WRN, or trans-dominant-negative WRNK577M, proteins upon HIV-1 replication and the production of intracellular viral structural components was tested in HIV-infected H9 lymphocytes that were stimulated with PHA (10 ng/ml) and human IL-2 (50 U/ml) . HIV-1IIIB-infected H9 lymphocytes were transfected with increasing amounts of CMV-WRN, CMV-WRNK577M, or CMV-green fluorescent protein (GFP) negative control (1.0, 3.0 μg) and then stimulated with PHA (10 ng/ml) and hIL-2 (50 U/ml) to induce HIV-1 replication. The HIV-1 p24^Gag major capsid and cellular actin proteins were detected by immuno-blotting using appropriate primary antibodies. Protein expression was quantified using a densitometer and is represented graphically below immunoblotting results shown in FIG. 7A.
For orientation: Immunoblotting shows a protein as a band on a membrane.

Series [8] relates to H9HIV-1IIIB lymphocytes. Description: Immunofluorescence-microscopy of p24^Gag in transfected HIV-1-infected H9 lymphocytes. The conditions noted are these: PHA/hIL-2 stimulated, Myc-epitope-tagged protein over-expression. How it is done: Immunofluorescence-microscopy was next performed to directly assess whether over-expression of Myc-epitope-tagged WRN or the trans-dominant-negative WRNK577M mutant influence HIV-replication and production of p24^Gag in infected H9HIV-1IIIB lymphocytes. HIV-1-infected H9 lymphocytes were transfected with increasing amounts of CMV-WRN, CMV-WRNK577M, or CβF empty vector (0.12, 0.25 μg) and were stimulated with PHA and hIL-2 as described above. Immunofluorescence-microscopy was performed to determine the influence of WRN or WRNK577M over-expression upon production of HIV-1 p24^Gag and viral replication. Expression of Myc-epitope-tagged WRN and WRNK577M proteins in transfected H9 cells was detected using a rabbit anti-Myc polyclonal antibody (Moser M J et al., Nucleic Acids Res. 28:648-654). Production of intracellular HIV-1 p24^Gag capsid protein was detected using a monoclonal anti-HIV-1 p24^Gag antibody. DAPI-staining was performed to visualize nuclei.

[9] abbreviates: highest concentration of RSV-HIV-1 Tat.
Where [10] appears, read: co-expression with Tat, increasing amounts.

As for “Tat: HIV-1 viral trans-activator protein, 81-101 amino acid residues, expressed from RSV construct”, in series [1], the “transcriptional activation of reporter deleted for κB-responsive elements and TAR-RNA” value was “completely abrogated transcriptional activation”. For the same molecule, the “Tat trans-activation of HIV-1 LTR” value came out at 22 fold in series [2] (setting [9]) and 0 fold in series [3]. Further, the “Tat-activated HIV-1 LTR luciferase activity” value in series [2] (setting [9]) is recorded as 14,834,412 RLUs; in series [3], 340 RLUs. Also, the “Tat-activated HIV-1 LTR luciferase activity with or without WRNK577M” value in series [2] is listed as 14,518,374 RLUs. Further, the “transcriptional activation from the HIV-1 LTR” value in series [4] (Tat alone) is on record as “approximately 250 fold”. In addition, in series [5], the “Tat-mediated trans-activation from the HIV-1 LTR^ΔκB-luciferase reporter” value is recorded as 6.5 fold.
Consider “BLM helicase: BLM DNA-helicase expressed from CMV-BLM construct”, for which the “transcription from the HIV-1 LTR^ΔκB-luciferase construct (in words)” value in series [5] is given as “no significant influence”. In series [6], the “effect on basal HIV-1 LTR transcriptional activity (in words)” value was “does not affect basal HIV-1 LTR transcriptional activity”. In series [6] (co-expression with Tat), the “effect on Tat-mediated transcriptional activation (in words)” value is listed as “does not significantly influence Tat-mediated transcriptional activation”.
As for “WRN helicase: wild-type Werner's syndrome helicase protein, 1432 amino acid residues, expressed from CMV construct”, in series [7], the “intracellular production of p24^Gag capsid protein / HIV-1 replication (immunoblot)” value is “significantly higher intracellular production of the p24^Gag major viral capsid protein”. Besides, the “transcriptional activation of reporter deleted for κB-responsive elements and TAR-RNA” value in series [1] is recorded as “completely abrogated transcriptional activation”. Also, the “trans-activation by Tat on co-expression of helicase” value in series [4] (setting [10]) is listed as “approximately 395 fold”. Moreover, the “transcription from the HIV-1 LTR^ΔκB-luciferase construct (in words)” value in series [5] is on record as “to a level approximately one-half that observed for Tat”. The “intracellular p24^Gag (immunofluorescence)” value in series [8] is reported as “increased intracellular p24^Gag”. Besides, the “effect on basal HIV-1 LTR transcriptional activity (in words)” value in series [6] is “transcriptionally activates the HIV-1 LTR in a dose-dependent manner”. Besides, the “Tat-mediated LTR trans-activation on co-expression of helicase” value in series [6] (co-expression with Tat, increasing amounts of construct) is on record as approximately 60 fold. In addition, the “transcriptional activation from the HIV-1 LTR” value in series [6] (wild-type LTR, factor expressed alone) is listed as “approx. 10 fold”.
For WRNK577M, the “intracellular production of p24^Gag capsid protein / HIV-1 replication (immunoblot)” value in series [7] is “represses production of the p24^Gag major capsid protein”. In addition, the “Tat-activated HIV-1 LTR luciferase activity with or without WRNK577M” value in series [2] is given as 5,457,345 RLUs. Besides, in series [4] (setting [10]), the “effect on Tat's transcriptional activation from the HIV-1 LTR (in words)” value was “repressed nearly one-half of Tat's transcriptional activation”. Moreover, in series [5], the “transcription from the HIV-1 LTR^ΔκB-luciferase construct (in words)” value is listed as “did not significantly promote transcription”. The “intracellular p24^Gag (immunofluorescence)” value in series [8] is “markedly reduced levels of p24^Gag”. For the same molecule, the “effect on basal HIV-1 LTR transcriptional activity (in words)” value in series [6] is recorded as “represses basal transcription to levels below base-line”.

B1: TatK28A/K50A (protein)
chain: MEPVDPRLEPWKHPGSQPKTACTNCYCAKCCFHCQVCFITKALGISYGRAKRRQRRRAHQNSQTHQASLSKQPTSQPRGDPTGPKE
For B1, in series [5] (co-expression with CMV-WRN), the “effect on WRN-mediated trans-activation from the HIV-1 TAR-RNA” value was “inhibited WRN-mediated trans-activation”.

Source of the values: patent US20060052326A1, “Werner's syndrome helicase as a target for anti -HIV/AIDS therapy” (priority 2004, published 2006).
